Experimental data published in patent publication US12146142B2, “Methods for improving genome engineering and regeneration in plant II” (KWS SAAT SE & Co. KGaA, priority 2018, dated 2024).

Assays:
[1] = system: maize A188 immature embryos; test: Embryogenic structure induction after transient co-bombardment of boost gene constructs; type: cell-based; details: 1 month after bombardment, co-bombarded with Tdt (FIG. 12)
Procedure: At 9-12 days post pollination, maize ears (i.e. A188 or Hi II) with immature embryos having a size of 0.8 to 1.8 mm, preferably 1.0-1.5 mm, were harvested. The ears were sterilized with 70% ethanol for 10-15 minutes. After brief air drying in a laminar hood, the top ˜⅓ of the kernels were removed from the ears with a shark scalpel, and the immature embryos were pulled out of the kernels carefully with a spatula. The fresh isolated embryos were placed onto the bombardment target area in an osmotic medium plate (see below) with scutellum-side up. The plates were wrapped with parafilm and incubated at 25° C. in the dark for 4 hours before bombardment. […]
After bombardment, the embryos remained on the osmotic medium for another 16 hours. Transient transformation was examined using a fluorescence microscope for the tDT expression at excitation maximum 554 nm and emission maximum 581 nm 16-20 hours after bombardment. The embryos with dense fluorescent signals under a fluorescence microscope (FIG. 9) were selected and transferred from N6OSM onto a N6-5Ag plate (˜15 embryos per plate) with scutellum-face-up for callus induction (see below). […]
The embryos with dense fluorescent signals under a fluorescence microscope (FIG. 9) were selected and transferred from N6OSM onto N6-5Ag for embryonic callus induction. […] Embryogenic callus induction was monitored by observation under a dissection microscope. […]

[2] = system: maize genotype A188; test: Regeneration of transgenic plants after stable integration of boost gene constructs including Pat-Tdt; type: cell-based; details: construct including Pat-Tdt
Description: This strong boost effect on the level of the embryo was also effective to the efficiency of regeneration of whole transgenic plant.

[3] = system: maize Hi II immature embryos; test: Stable transformation frequency of co-delivered tDT report gene without selection; type: cell-based; details: transient expression, 10 days after co-bombardment
Procedure: Maize embryo preparation, transient bombardment, and embryonic callus induction are described in Examples 1 and 2. The embryos were cultured in N6-5Ag medium at 27° C. in the dark for 14 days. tDT fluorescence was used to monitor embryogenic callus induction and stable transformation by observation under a fluorescent microscope. Specifically, the boost effect was measured by its capability to increase transformation frequency (TF) of the tDT report gene […] after bombardment without a selection.
The strong and uniformed tDT fluorescent signals from the emerging embryonic structures in FIG. 14 indicated integration and stable transformation of tDT gene. Stable transformation frequency is defined as the number of embryos with at least one stable tDT fluorescent structures induced from 100 embryos initially used. Stable transformation frequency was measured 10 days after bombardment.

[4] = system: maize Hi II genotype; test: Stable transformation of boost gene in Hi II genotype and appearance of the transgenic plants; type: in vivo
Description: Stable transformation of ZmPLT7 gene in Hi II genotype was successful.

[5] = system: maize A188 plants; test: Phenotype of adult plants regenerated from stable transformation of A188; type: in vivo; details: stable transgenic integration, A188, compared to normal A188 plants (FIG. 13)
[6] = system: maize WUS2 promoter; test: Maize WUS2 promoter tDT report construct co-bombarded with boost factor; type: cell-based; details: for activation of maize WUS2 promoter / gene: transient co-bombardment in immature embryos and leaves
Description: Homeobox domain transcriptional factor WUSCHEL (WUS) plays an important role in establishing and maintaining of shoot meristem. To identify boost factors that promote endogenous WUS2 expression, the maize WUSCHEL 2 promoter report construct (pAMK-ZmWUS2-tDT-noT) (SEQ ID NO: 29; FIG. 16) was used to illustrate maize WUS2 promoter activity. The maize WUS2 promoter (pZmWUS2) drove expression of the tDT report gene in this report construct (FIG. 16). The WUS2 promoter report construct was co-bombarded with boost factors individually in maize immature embryos and leaf segments.
Fresh leaf segments of 1-2 cm in length were prepared from the in vitro-cultured maize A188 seedling of 10-14 days old, and placed on the Osmotic medium with abaxial side up for 4 hours. For co-bombardment, two plasmids (100 ng of ZmWUS2 promoter report (FIG. 16) and 100 ng of boost construct, e.g. TaRKD4 (FIG. 5)) were premixed and coated onto 100 μg of gold particles size 0.4 μm. Immature embryo preparation, bombardment, and post-bombardment culturing were carried out as described in Example 1 and Example 2. Red fluorescence showing tDT expression was monitored using a fluorescent microscope started at 16 hours after bombardment.

[7] = A188 leaf segments, after bombardment, co-bombarded with pZmWUS2 report

Substance: ZmPLT7: maize PLT7 gene expression construct driven by strong constitutive Brachypodium EF1 promoter (SEQ ID NO: 27; cDNA SEQ ID NO: 3)
- quantification of embryonic structures with Tdt formation per embryo [1]: slightly increased amount/development of embryonic structures per embryo
- efficiency of regeneration of transgenic plants [2]: no transgenic plants have been produced successfully
- effect on stable transformation of co-delivered tDT report gene [3]: promotes stable transformation frequency
- stable transformation of the boost gene [4]: successful
- appearance of transgenic plants ([4]; single construct, compared to normal A188 plants (FIG. 15)): comparable appearance than the normal A188 maize plants

Substance: ZmWUS2: maize WUS2 gene expression construct driven by strong constitutive Brachypodium EF1 promoter (SEQ ID NO: 28; cDNA SEQ ID NO: 1)
- quantification of embryonic structures with Tdt formation per embryo [1]: slightly increased amount/development of embryonic structures per embryo
- phenotype of produced transgenic plants [5]: without any detrimental phenotype
- efficiency of regeneration of transgenic plants [2]: transgenic plants at a low level of efficiency

Substance: wheat RKD4: wheat RKD4 gene, maize-codon optimized, expression construct driven by Brachypodium EF1 promoter (SEQ ID NO: 34)
- time at which tDT signal peaked [6, 7]: around 44 hours
- time at which tDT signal was detected [6, 7]: around 36 hours
- tDT red fluorescent signal ([6]; immature embryos, 44 hours after bombardment, compared to WUS promoter reporter only (weak signals)): extremely strong red fluorescent signals
- activation of maize WUS2 promoter / gene [6]: strongly activate maize WUS2 genes
- activation of maize WUS2 promoter / gene ([6]; listed as TaRKD4): activates maize WUS2 promoter
